Usually inhibition stands for the share of the control response that was lost under treatment.

The nature of assay [1]: Inhibition of COX2 expression in HCA-7 cells at 12 uM after 48 hrs by Western blot method relative to control. The class given is functional. To be noted: Homo sapiens, HCA-7, 48 h. In general terms: Immunoblotting shows a protein as a band on a membrane.
The target in assay [2] is T1, Prostaglandin G/H synthase 2 (Homo sapiens) (UniProt P35354).
T1 sequence (whole entry): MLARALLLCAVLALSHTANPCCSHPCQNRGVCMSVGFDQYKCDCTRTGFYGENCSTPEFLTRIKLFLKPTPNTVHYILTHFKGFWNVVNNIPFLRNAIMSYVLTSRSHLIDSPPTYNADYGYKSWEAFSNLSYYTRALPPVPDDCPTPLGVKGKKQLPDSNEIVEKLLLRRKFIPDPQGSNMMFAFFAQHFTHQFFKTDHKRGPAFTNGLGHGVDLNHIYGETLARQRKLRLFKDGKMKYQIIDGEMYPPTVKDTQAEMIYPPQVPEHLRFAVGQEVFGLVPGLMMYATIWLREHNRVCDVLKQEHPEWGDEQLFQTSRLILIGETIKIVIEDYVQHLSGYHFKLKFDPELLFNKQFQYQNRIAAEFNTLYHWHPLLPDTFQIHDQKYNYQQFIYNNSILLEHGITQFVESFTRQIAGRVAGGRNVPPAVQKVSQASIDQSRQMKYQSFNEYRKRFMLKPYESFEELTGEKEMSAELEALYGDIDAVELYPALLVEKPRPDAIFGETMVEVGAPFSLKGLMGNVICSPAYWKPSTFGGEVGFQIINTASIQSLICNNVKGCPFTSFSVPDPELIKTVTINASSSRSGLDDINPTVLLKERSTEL
Kind of assay: Inhibition of COX2 in HCA-7 cells assessed as reduction in PGE2 release at 12 uM after 48 hrs by ELISA relative to control. The assay is classed as cell-based. (In an ELISA, binding on a coated surface is turned into a signal by an enzyme label.)

The nature of assay [3]: Inhibition of COX2 expression in HCA-7 cells at 1 mM after 48 hrs by Western blot method relative to control. The class given is functional. Particulars: Homo sapiens, HCA-7, 48 h.

Regarding `COc1ccc(/C=C2\COc3cc(O)c(O)c(O)c3C2=O)cc1O`, the inhibition at 12 µM in assay [1] worked out at 10%. Moreover, in assay [2], the inhibition amounted to 20%.

As to `COc1ccc(/C=C2\COc3cc(O)cc(O)c3C2=O)cc1OC(C)=O`, in assay [1], the inhibition at 12 µM was found to be 8%. Besides, in assay [2], the inhibition came out at 11%.

For the molecule `CC(=O)Oc1ccccc1C(=O)O` [ASPIRIN], in assay [3], the inhibition at 1000 µM is 12%.
